Values joined by “and” are separate entries in the source; they are usually repeats but may differ in a detail not shown here. Equal values may be shown once.
How the values were obtained:
[1] = LC-MS-MS determination of Bitrex in leaf tissue of oilseed rape seedlings; format: in vivo, Brassica napus
Description: Further experiments on system uptake of Bitrex have been conducted also on oilseed rape (Brassica napus). Seeds of Brassica napus have been treated with concentration of Bitrex from 0.15 g/unit to 75 g/unit. Seeds have been sown and leaf samples have been taken 6 days after emergence and 22 days after emergence. By means of Liquid Chromatography with tandem mass spectrometry (LC-MS-MS) as described above Bitrex amount in leaf tissue has been determined with 4 repetition per Bitrex concentration. Leave samples have been prepared as follows: Leaf material has been harvested, cut in small pieces and put in 3-5 ml ethanol. After 45 min vortexing, centrifuging and taking aliquot of 1 ml for further analysis.

corn seeds = assay: Phytotoxicity: cold test germination rate (CT) of treated corn seeds; conditions: for ΔCT: vs no Bitrex
Experimental: In order to evaluate the phytotoxicity of different corn seed treatments, safety tests were conducted. Germination rates of corn seeds treated with various concentrations of denatonium benzoate (Bitrex®) [in g per unit, where 1 unit is 50.000 seeds] were counted after five days at 25° C. Cold test germination rates (CT) were counted after 7 days at 10° C. and 5 days at 25° C. The treatments were compared to untreated seeds.
KF=germination rates counted after 5 days at 25° C. and CT=cold test germination rates counted after 7 days at 10° C. and 5 days at 25° C.

[2] = corn Amavit, chemical no, Bitrex 0.2 g/u
[3] = corn Amavit, chemical no, Bitrex 0.5 g/u
[4] = corn Amavit, chemical no, Bitrex 1.0 g/u
[5] = corn Amavit, chemical no, Bitrex 2.0 g/u
[6] = corn Amavit, chemical no, Bitrex 5.0 g/u
[7] = corn Amavit, with MaximXL, Bitrex 0.2 g/u
[8] = corn Amavit, with MaximXL, Bitrex 0.5 g/u
[9] = corn Amavit, with MaximXL, Bitrex 1.0 g/u
[10] = corn Amavit, with MaximXL, Bitrex 2.0 g/u
[11] = corn Amavit, with MaximXL, Bitrex 5.0 g/u
[12] = corn Amavit, with RedigoM, Bitrex 0.2 g/u
[13] = corn Amavit, with RedigoM, Bitrex 0.5 g/u
[14] = corn Amavit, with RedigoM, Bitrex 1.0 g/u
[15] = corn Amavit, with RedigoM, Bitrex 2.0 g/u
[16] = corn Amavit, with RedigoM, Bitrex 5.0 g/u
[17] = corn KXB6432, chemical no, Bitrex 0.2 g/u
[18] = corn KXB6432, chemical no, Bitrex 0.5 g/u
[19] = corn KXB6432, chemical no, Bitrex 1.0 g/u

With `CC[N+](CC)(CC(=O)Nc1c(C)cccc1C)Cc1ccccc1.O=C([O-])c1ccccc1` [Bitrex, N-Benzyl-2-(2,6-dimethylanilino)-N, N-diethyl-2-oxoethan-1-aminium benzoate] the “Bitrex concentation 22 days after emergence” value ([1]; oilseed rape leaf, Bitrex 0.15 g/unit, repetitions 1-4) was 11.03 ng/g and 10.65 ng/g and 5.58 ng/g and 7.75 ng/g, the “Bitrex concentation 6 days after emergence” value ([1]; oilseed rape leaf, Bitrex 7.5 g/unit, repetitions 1-4) was 354.65 ng/g and 194.60 ng/g and 266.85 ng/g and 251.41 ng/g and the “Bitrex in leaf tissue after 22 days” value ([1]; oilseed rape, all applications 0.15-75 g/unit) was “still detectable but at a low amount”. The “CT cold test germination rate, 7 days at 10° C. and 5 days at 25° C.” value (“CT cold test germination rate, 7 days” below) (corn seeds; [2]) was 91.5%, the “CT cold test germination rate, 7 days” value (corn seeds; [3]) was 89.0% and the “CT cold test germination rate, 7 days” value (corn seeds; [4]) was 95.5%. For the same molecule, the “CT cold test germination rate, 7 days” value (corn seeds; [5]) was 93.0%, the “CT cold test germination rate, 7 days” value (corn seeds; [6]) was 96.5% and the “CT cold test germination rate, 7 days” value (corn seeds; [7]) was 98.0%. For the same molecule, the “CT cold test germination rate, 7 days” value (corn seeds; [8]) was 98.0%, the “CT cold test germination rate, 7 days” value (corn seeds; [9]) was 97.0% and the “CT cold test germination rate, 7 days” value (corn seeds; [10]) was 99.0%. The “CT cold test germination rate, 7 days” value (corn seeds; [11]) was 99.0%, the “CT cold test germination rate, 7 days” value (corn seeds; [12]) was 97.5% and the “CT cold test germination rate, 7 days” value (corn seeds; [13]) was 99.0%. For the same molecule, the “CT cold test germination rate, 7 days” value (corn seeds; [14]) was 99.0%, the “CT cold test germination rate, 7 days” value (corn seeds; [15]) was 95.5% and the “CT cold test germination rate, 7 days” value (corn seeds; [16]) was 96.5%. For the same molecule, the “CT cold test germination rate, 7 days” value (corn seeds; [17]) was 98.0%, the “CT cold test germination rate, 7 days” value (corn seeds; [18]) was 97.5% and the “CT cold test germination rate, 7 days” value (corn seeds; [19]) was 97.0%. For the same molecule, the “CT cold test germination rate, 7 days” value (corn seeds; corn KXB6432, chemical no, Bitrex 2.0 g/u) was 90.5%, the “CT cold test germination rate, 7 days” value (corn seeds; corn KXB6432, chemical no, Bitrex 5.0 g/u) was 90.5% and the “CT cold test germination rate, 7 days” value (corn seeds; corn KXB6432, with MaximXL, Bitrex 0.2 g/u) was 100.0%. For the same molecule, the “CT cold test germination rate, 7 days” value (corn seeds; corn KXB6432, with MaximXL, Bitrex 0.5 g/u) was 99.5%, the “CT cold test germination rate, 7 days” value (corn seeds; corn KXB6432, with MaximXL, Bitrex 1.0 g/u) was 98.0% and the “CT cold test germination rate, 7 days” value (corn seeds; corn KXB6432, with MaximXL, Bitrex 2.0 g/u) was 96.5%. The “CT cold test germination rate, 7 days” value (corn seeds; corn KXB6432, with MaximXL, Bitrex 5.0 g/u) was 99.0%, the “CT cold test germination rate, 7 days” value (corn seeds; corn KXB6432, with RedigoM, Bitrex 0.2 g/u) was 97.0% and the “CT cold test germination rate, 7 days” value (corn seeds; corn KXB6432, with RedigoM, Bitrex 0.5 g/u) was 96.5%. For the same molecule, the “CT cold test germination rate, 7 days” value (corn seeds; corn KXB6432, with RedigoM, Bitrex 1.0 g/u) was 99.5%, the “CT cold test germination rate, 7 days” value (corn seeds; corn KXB6432, with RedigoM, Bitrex 2.0 g/u) was 98.5% and the “CT cold test germination rate, 7 days” value (corn seeds; corn KXB6432, with RedigoM, Bitrex 5.0 g/u) was 96.5%. The ΔCT (corn seeds; [2]) was 6.0%, the ΔCT (corn seeds; [3]) was 3.5% and the ΔCT (corn seeds; [4]) was 10.0%. It also gave a ΔCT (corn seeds; [5]) of 7.5%, a ΔCT (corn seeds; [6]) of 11.0% and a ΔCT (corn seeds; [7]) of −2.0%. For the same molecule, the ΔCT (corn seeds; [8]) was −2.0%, the ΔCT (corn seeds; [9]) was −3.0% and the ΔCT (corn seeds; [10]) was −1.0%. For the same molecule, the ΔCT (corn seeds; [11]) was −1.0%, the ΔCT (corn seeds; [12]) was 0.5% and the ΔCT (corn seeds; [13]) was 2.0%. The ΔCT (corn seeds; [14]) was 2.0%, the ΔCT (corn seeds; [15]) was −1.5% and the ΔCT (corn seeds; [16]) was −0.5%. For the same molecule, the ΔCT (corn seeds; [17]) was 5.5%, the ΔCT (corn seeds; [18]) was 5.0% and the ΔCT (corn seeds; [19]) was 4.5%.

From US20230086007A1, “USE OF DENATONIUM BENZOATE AS A SEED TREATMENT FOR CROPS AS BIRD AND/OR INSECT REPELLENT” (KWS SAAT SE & Co. KGaA, priority 2020, published 2023)
